In PMC9613470, “Diverse MarR bacterial regulators of auxin catabolism in the plant microbiome” (Nature Microbiology, 2022):
Like-named read-outs stand apart in the source and are kept apart here.

Key:
IAA degradation locus = assay: RNA-seq of V. paradoxus CL14 strains with and without IAA; format: cell-based, Variovorax paradoxus CL14; conditions: Fig 2 f; for CL14wt_IAA (RNA-seq expression value): CL14 wild type with IAA; for d50_IAA (RNA-seq expression value): ΔMarR_50 with IAA; for d73_IAA (RNA-seq expression value): ΔMarR_73 with IAA; for diadDE_IAA (RNA-seq expression value): ΔiadDE with IAA
Protocol: V. paradoxus CL14 was grown in 5 ml cultures of M9 minimal medium supplemented with 15 mM succinate and 0.5% (v/v) ethanol alone or containing IAA. IAA was at a final concentration of 0.1 mg ml^−1 in the medium to which it was added. Cultures were prepared at a starting OD600 of 0.02 and incubated at 28 °C, shaking at 250 r.p.m. Cells from all samples were collected for RNA-seq at 18 h to ensure IAA was still present in the cultures of strains that degraded IAA most rapidly. Cells were pelleted by centrifuging the culture at 4,200 × g for 15 min and removing the supernatant. Cell pellets were frozen at −80 °C before RNA extraction. To extract RNA, cells were lysed in TRIzol reagent (Invitrogen) according to manufacturer instructions for lysis and phase separation. After these steps, RNA was purified from the aqueous phase using the RNeasy mini kit (Qiagen) including the optional on-column DNase digestion with RNase-free DNase set (Qiagen). Total RNA was quantified using the Qubit 2.0 fluorometer (Invitrogen) and RNA-seq libraries were prepared using the Universal Prokaryotic RNA-Seq Prokaryotic AnyDeplete kit (Tecan) according to manufacturer instructions. The resulting libraries were pooled and sequenced on the Illumina HiSeq4000 to generate 50 bp single-end reads.
The V. paradoxus CL14 RNA-seq sequence data were analysed as described previously. Briefly, the raw reads were mapped to the V. paradoxus CL14 genome (fasta file available at https://github.com/isaisg/variovoraxRGI/blob/master/rawdata/2643221508.fna) using bowtie2[53] with the ‘very sensitive’ flag. Hits to each individual coding sequence were counted and annotated using the function featureCounts from the R package Rsubread[54], inputting the V. paradoxus CL14 gff file (available at https://github.com/isaisg/variovoraxRGI/blob/master/rawdata/2643221508.gff) and using the default parameters with the flag allowMultiOverlap = FALSE. Finally, DESeq2[55] was used to estimate Differentially Expressed Genes (DEGs) between treatments, with the corresponding fold-change estimates and False Discovery Rate (FDR) adjusted P values. For visualization purposes, we performed z-score standardization of each gene across samples and we visualized this standardized expression values utilizing a heat map constructed using ggplot2[56].

[1] = molecular target: Ruegaria pomeroyi MarR_3CDH (Ruegeria pomeroyi, UniProt Q5LTG1); assay: ITC IAA binding to MarR_3CDH; conditions: 25 °C, IadR (MarR_73-like)
Protocol: The coding sequence for each gene can be found in Supplementary Table 10. MarR expression plasmids were synthesized as codon-optimized genes for E. coli expression by BioBasic in the pLIC-His N-term vector (pMCSG7) and transformed into E. coli BL21 (DE3) Gold cells for expression. […] At an OD600 of 0.8, protein expression was induced by the addition of 0.1 mM IPTG and incubation continued overnight. Cells were collected by centrifugation at 4,500 × g for 20 min at 4 °C in a Sorvall (model RC-3B) swinging bucket centrifuge. Cell pellets were resuspended in buffer A (20 mM potassium phosphate, pH 7.4, 50 mM imidazole, 500 mM NaCl), DNase, lysozyme and a Roche Complete EDTA-free protease inhibitor tablet. Resuspended cells were sonicated and clarified via centrifugation at 17,000 × g for 60 min in a Sorvall (model RC-5B) swinging bucket centrifuge. The lysate was applied to a nickel-nitrilotriacetic acid HP column (GE Healthcare) on an Aktaxpress Fast Performance Liquid Chromatography (FPLC) system (Amersham Bioscience) and washed with buffer A. Protein was eluted with buffer B (20 mM potassium phosphate, pH 7.4, 500 mM imidazole, 500 mM NaCl). Fractions containing the protein of interest were combined and passed over a HiLoadTM 16/60 SuperdexTM 200 gel filtration column. Proteins were eluted in S200 buffer (20 mM HEPES, pH 7.4, 300 mM NaCl). Fractions were combined and concentrated for long-term storage at −80 °C.
All ITC measurements were performed at 25 °C using an Auto-ITC200 microcalorimeter (MicroCal/GE Healthcare). The buffer employed was 20 mM HEPES, pH 7.4, 50 mM NaCl and 0.5% dimethly sulfoxide (DMSO) for protein/ligand binding and 20 mM HEPES, pH 7.4 and 300 mM NaCl for DNA/protein binding experiments. For ligand binding experiments, the calorimetry cell (volume […]) was loaded with MarR wild-type, mutant or homologue protein at a concentration of 50 μM. The syringe was loaded with a ligand concentration of 0.5 or 2 mM. […] A typical injection protocol included a single 0.2 μl first injection followed by 20 1.5 μl injections of the syringe sample into the calorimetry cell. The spacing between injections was kept at 180 s and the reference power at 8 μcal s^−1. […] Two independent ITC measurements were performed for each condition.

Sequence of Ruegaria pomeroyi MarR_3CDH (Q5LTG1 entry or part of it): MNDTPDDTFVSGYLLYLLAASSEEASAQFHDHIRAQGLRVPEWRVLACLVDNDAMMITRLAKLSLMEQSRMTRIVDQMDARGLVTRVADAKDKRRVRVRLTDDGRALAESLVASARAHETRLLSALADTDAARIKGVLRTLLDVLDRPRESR

## O=C(O)Cc1c[nH]c2ccccc12 [IAA, indole-3-acetic acid]
IAA degradation locus; Gene 2643611541
  CL14wt_IAA (RNA-seq expression value): -0.7473
  d50_IAA (RNA-seq expression value): 0.6042
  d73_IAA (RNA-seq expression value): 0.2688
  diadDE_IAA (RNA-seq expression value): 0.4986
IAA degradation locus; Gene 2643611542
  CL14wt_IAA (RNA-seq expression value): -0.07617
  d50_IAA (RNA-seq expression value): 0.09619
  d73_IAA (RNA-seq expression value): 0.02449
  diadDE_IAA (RNA-seq expression value): 0.1314
IAA degradation locus; Gene 2643611543
  CL14wt_IAA (RNA-seq expression value): -0.001618
  d50_IAA (RNA-seq expression value): 0.2002
  d73_IAA (RNA-seq expression value): 0.2405
  diadDE_IAA (RNA-seq expression value): 0.0895
IAA degradation locus; Gene 2643611544
  CL14wt_IAA (RNA-seq expression value): -1.408
  d50_IAA (RNA-seq expression value): -0.115
  d73_IAA (RNA-seq expression value): 0.2327
  diadDE_IAA (RNA-seq expression value): 0.2436
IAA degradation locus; Gene 2643611545
  CL14wt_IAA (RNA-seq expression value): -0.03496
  d50_IAA (RNA-seq expression value): 0.09136
  d73_IAA (RNA-seq expression value): -0.02991
  diadDE_IAA (RNA-seq expression value): 0.001153
[1]; first site
  N1: 0.411 ± 0.012
[1]; first site, read-out: KD1
  Kd: 237 ± 99 nM
[1]; second site
  N2: 0.216 ± 0.011
[1]; second site, read-out: KD2
  Kd: 6 nM
